These results are taken from patent publication US20170158636A1, “FUNCTIONALISED AND SUBSTITUTED CARBAZOLES AS ANTI-CANCER AGENTS” (Novogen Ltd., priority 2014, published 2017).

Assay type in all cases: cell-based
Test [1] concerns A549 lung (NSLC) cancer cells. In words: Anti-proliferative activity, cell-titre luminescent viability assay. The following applies: Homo sapiens, 72 hours exposure. The protocol:
(§1) The ability of compounds 1001-1018 and 1037-1039 to inhibit the proliferation of cancer cells representative of neuroblastoma, melanoma, prostate cancer, colorectal cancer, non-small cell lung carcinoma, and triple negative breast cancer was assessed (Table 1).
(§2) Briefly, a pre-determined number of cells as calculated from cell growth assays for each of the cell lines employed were seeded into their respective culture medium (using ATCC culture parameters—http://www.atcc.org) and cultured for 24 hours at 37° C. and 5% CO2 in 96-well culture plates. Once attached, each cell line was then exposed to increasing concentrations of each respective analogue (0.03, 0.3, 3 and 30 μM for compounds 1001-13 and 1015-18; 0.1, 0.3, 1, 3, 10 and 30 μM for compounds 1014 and 1037-39), cultured for a further 72 hours and exposed to cell-titre luminescent reagent (100 μL/well) for a further 30 minutes) to measure cell viability. Luminescence was captured using an EnVision multilabel reader and the data for each analogue concentration compared against no treatment control. For compounds 1001-13 and 1015-18, semi-log plots of Percent of Control versus concentration were prepared and IC50 determined using linear regression analysis. For compounds 1014 and 1037-39, cell viability was normalized to control (vehicle alone) and dose-response curves, and half maximal effective concentration (EC50) values were determined using Graph Pad Prism 6 (nonlinear regression sigmoidal dose-response variable slope).

In test [2] the test system is DU145 prostate cancer cells. Described as above. The settings on record: Homo sapiens, DU-145, 72 hours exposure. The protocol:
as §1, §2

Test [3] concerns SK-N-SH neuroblastoma cells. Described as above. The following applies: Homo sapiens, 72 hours exposure. The protocol: as §1, §2
The test system of another test is SK-Mel-28 melanoma cells. The test is described as above. The settings on record: Homo sapiens, 72 hours exposure. The protocol:
as §1, §2

In test [4] the test system is PC3 prostate cancer cells. The test is described as above. The following applies: 72 hours exposure. The protocol:
as §1, §2

In test [5] the test system is MDA-MB-231 breast cancer cells. The description is as above. The following applies: Homo sapiens, 72 hours exposure. The protocol: as §1, §2
In test [6] the test system is CaCo2 colorectal cancer cells. Described as above. The following applies: Homo sapiens, Caco-2, 72 hours exposure. The protocol: as §1, §2
Another test has as its system IL-17A. In words: Cytokine release from PMA/ionomycin-stimulated PBMCs (HTRF). The settings on record: PBMC, human PBMCs, PMA and ionomycin. The protocol: (§3) The ability of compounds 1004, 1007 and 1018 to inhibit the release of cytokines TNF-α, IFN-γ, IL-6, IL-21, IL-17A and IL-23 was evaluated in vitro (Tables 2 and 3). Briefly, human peripheral blood mononuclear cells (PBMCs) were isolated from human peripheral blood by Histopaque density gradient centrifugation. The freshly isolated PBMCs were seeded at 50,000 cells/well in a 96-well half area plate. PBMCs were dosed with the test compounds (at 10 μM, 1 μM and 0.1 μM) and then incubated at 37° C. and 5% CO2 for 2 hours. To stimulate release of the cytokines IFN-γ, IL-21, IL-17A and IL-23, the PBMCs were treated with 50 ng/mL of phorbol 12-myristate 13-acetate (PMA) and 1 μg/mL of ionomycin and to stimulate the release of TNF-α and IL-6, PBMCs were treated with 100 ng/mL of lipopolysaccharide (LPS) from gram-negative bacteria. The PBMCs were then incubated at 37° C. and 5% CO2 for a further 6 hours and the cell supernatant was collected and a Homogenous Time Resolved Fluorescence (HTRF) assay was carried out following the manufacturer's instructions. Cytokine release from the PBMCs was captured using a Perkin Elmer ENVISION 2104 microplate reader set at 615 nm and 665 nm respectively.
On the technique in general: Time-resolved FRET reads energy transfer from a long-lived donor to a nearby acceptor.

A further test concerns IL-21. The description is as above. The settings on record: PBMC, human PBMCs, PMA and ionomycin. The protocol:
as §3

The test system of a further test is IFN-γ. Described as above. The settings on record: PBMC, human PBMCs, PMA and ionomycin. The protocol: as §3
A further test deals with IL-23. Described as above. The following applies: PBMC, human PBMCs, PMA and ionomycin. The protocol:
as §3

In another test the test system is IL-6. In words: Cytokine release from LPS-stimulated PBMCs (HTRF). The settings on record: PBMC, human PBMCs. The protocol: as §3
For the next test, the system named is TNF-α. As to the kind of experiment: Cytokine release from LPS-stimulated PBMCs (HTRF). The following applies: PBMC, human PBMCs. The protocol: as §3
The subject of test [7] is actin cytoskeleton in SK-N-SH neuroblastoma cells. In words: Microfilament disruption assay (phalloidin staining, linear feature quantitation). The settings on record: 0-40 μM, 24 hours post treatment. The protocol: FIG. 1: Imaging and quantitation of actin filaments in SK-N-SH neuroblastoma cells treated with compound (A) 1007, (B) 1013 and (C) 1016. Cells were stained with 488-Atto-Phallodin and DAPI to visualize the actin filament bundles and the nucleus, respectively. Shown in the top panel is a representative gray scale immunofluorescent image from control (vehicle alone), 5 μM and 10 μM treated cells. […] The coloured lines indicate the detected actin filaments. Also shown is the quantitation of cell number, filament number/cell and filament number/cell area (μM^2). Statistical analysis was performed using a one way ANNOVA-multiple comparison where each drug treated group was compared to the control. ****p<0.0001, […].
The ability of compounds 1007, 1013 and 1016 to disrupt the actin cytoskeleton was assessed in vitro using the microfilament disruption assay (FIG. 1).
Briefly, SK-N-SH neuroblastoma cells were seeded at 1800 cells/well in a 384 Perkin Elmer High Content Imaging “Cell Carrier” plate and left to plate down 24 hours prior to treatment. Cells were then treated with 0-40 μM of the test compounds (1:2 serial dilution in a 10 point dose response). 24 hours post treatment, cells were fixed with 4% w/v paraformaldehyde (PBS), permeabilized with Triton-X-100 and stained with 488-Atto-Phallodin and DAPI to visualize the actin filament bundles and the nucleus respectively. Single plane images were obtained on the Perkin Elmer Opera confocal microscope using a 20× objective. Twelve fields of view per condition (representing approximately 300-800 cells) were imaged. Images were then exported and changes in the organization and numbers of actin filaments within the cell were quantitated using a linear feature detection algorithm developed by CSIRO (Vindin et al. 2014). This algorithm detects the “ridge lines” or “peaks” in local pixel intensity in the cell image. It is these “ridge lines” that correspond to actin filament bundles and allow us to quantitate the number of filaments per cell.

Test [8] deals with Tpm3.1-containing actin filaments in SK-N-SH neuroblastoma cells. In words: Disruption of Tpm3.1-containing actin filaments (γ9d staining). The settings on record: SK-N-SH cells, 0, 5 and 7.5 μM, 48 hours post treatment. The protocol: FIG. 2: Imaging and quantitation of Tpm3.1-containing actin filaments in SK-N-SH neuroblastoma cells treated with compound (A) 1007, (B) 1013 and (C) 1016. Cells were stained with γ9d (sheep polycolonal, 1:100) followed by 488-conjugated secondary (1:1000) and DAPI to visualize the Tpm3.1 containing filament bundles and the nucleus, respectively. Shown in the top panel is a representative gray scale immunofluorescent image from control (vehicle alone), 5 μM and 7.5 μM treated cells. […] The coloured lines indicate the detected Tpm3.1 containing actin filaments. Also shown is the quantitation of cell number, Tpm3.1 filament number/cell and Tpm3.1 filament number/cell area (μM^2). Statistical analysis was performed using a one way ANNOVA-multiple comparison where each drug treated group was compared to the control. ****p<0.0001.
Another assay was conducted to assess the ability of compounds 1007, 1013 and 1016 to specifically disrupt actin filaments containing Tpm3.1 (FIG. 2). Briefly, SK-N-SH neuroblastoma cells were seeded at 2×10^4 cells/mL in a 10 cm tissue culture plate and left to plate down 24 hours prior to treatment. Cells were then treated with 0, 5 and 7.5 μM of the test compounds. 48 hours post treatment, cells were fixed with 4% w/v paraformaldehyde (PBS), permeabilized with Triton-X-100 and stained with γ9d (sheep polycolonal, 1:100) followed by 488-conjugated secondary (1:1000) and DAPI to visualize the Tpm3.1 containing filament bundles and the nucleus, respectively. Single plane images were obtained on the Zeiss epifluorescent Axioscope microscope using a 20× objective. Six fields of view per condition were imaged. Images were then exported and the linear features (actin filaments containing Tpm3.1) were then quantitated using the linear feature detection algorithm described above.

Broadly, the IC50 is the concentration that gives 50% inhibition. High values mean weaker potency, low ones greater potency. For orientation: inhibition means the relative decrease from the control value, in per cent. With `CN(C)CCCn1c2ccccc2c2cc(C(=O)N3CCN(CCc4ccc5c(c4)OCO5)CC3)ccc21` [Compound 1004, (4-(2-(benzo[d][1,3]dioxol-5-yl)ethyl)piperazin-1-yl)(9-(3-(dimethylamino)propyl)-9H-carbazol-3-yl)methanone], the IC50 in test [1] amounted to 3400 nM; in test [2], 3300 nM; in test [3], 2900 nM; in the test with SK-Mel-28 melanoma cells, 3500 nM; in [4] it was 2900 nM; in test [5], 3800 nM. The compound also returned a 50% inhibitory concentration (IC50) in test [6] of 3700 nM. In addition, the inhibition at 0.1 µM in the test with IL-17A was -2%; with IL-21, -6%; in the test on IFN-γ it was -19%; in the test with IL-23, -16%; in the test with IL-6 it was -9%; with TNF-α it was 9%. The inhibition at 1 µM was 6% in the test with IL-17A; -3% in the test on IL-21; -6% in the test with IFN-γ; 9% in the test on IL-23; -10% in the test with IL-6; -8% with TNF-α. Further, the inhibition at 10 µM is 47% in the test on IL-17A; 2% in the test on IL-21; -7% in the test with IFN-γ; 22% in the test with IL-23; 2% in the test on IL-6; 1% in the test on TNF-α.

For the compound `CN1CCN(CCCn2c3ccccc3c3cc(C(=O)N4CCN(CCc5ccc(F)cc5)CC4)ccc32)CC1` [Compound 1013, (4-(4-fluorophenethyl)piperazin-1-yl)(9-(3-(4-methylpiperazin-1-yl)propyl)-9H-carbazol-3-yl)methanone], the concentration for half-maximal inhibition (IC50) in test [1] came out at 3700 nM; in test [2], 3500 nM; in test [3] it was 2400 nM; in the test on SK-Mel-28 melanoma cells, 2000 nM; in test [4], 3300 nM; in [5] it was 2800 nM. For the same compound, in test [6], the IC50 was determined as 2000 nM. In test [7], the “disruption of the actin cytoskeleton” value is “disrupt the actin cytoskeleton in a dose-dependent manner”. Moreover, the “disruption of Tpm3.1-containing actin filaments” value in [8] is recorded as “disrupt Tpm3.1-containing actin filaments in a dose-dependent manner”.

For `CN1CCN(CCCn2c3ccccc3c3cc(C(=O)N4CCN(CCc5cccc(F)c5)CC4)ccc32)CC1` [Compound 1016, (4-(3-fluorophenethyl)piperazin-1-yl)(9-(3-(4-methylpiperazin-1-yl)propyl)-9H-carbazol-3-yl)methanone], the IC50 in test [1] amounted to 3000 nM; in test [2], 2800 nM; in test [3], 2700 nM; in the test with SK-Mel-28 melanoma cells it was 2400 nM; in test [4], 4000 nM; in test [5], 2500 nM. Besides, the half-maximal inhibitory concentration (IC50) in test [6] is 3100 nM. Besides, in [7], the “disruption of the actin cytoskeleton” value is recorded as “disrupt the actin cytoskeleton in a dose-dependent manner”. In [8], the “disruption of Tpm3.1-containing actin filaments” value was “disrupt Tpm3.1-containing actin filaments in a dose-dependent manner”.

For `CN1CCN(CCCn2c3ccccc3c3cc(C(=O)N4CCN(CCc5ccccc5)CC4)ccc32)CC1` [Compound 1018, (4-phenethylpiperazin-1-yl)(9-(3-(4-methylpiperazin-1-yl)propyl)-9H-carbazol-3-yl)methanone], the IC50 in [1] stood at 2000 nM; in test [2] it was 3300 nM; in test [3], 1900 nM; in the test with SK-Mel-28 melanoma cells it was 2500 nM; in test [4], 2900 nM; in [5], 1600 nM. In test [6], the concentration for half-maximal inhibition (IC50) is 1500 nM. Besides, the inhibition at 0.1 µM with IL-17A was 2%; with IL-21, 13%; in the test with IFN-γ, 2%; in the test with IL-23, -6%; with IL-6 it was 22%; with TNF-α it was 26%. The inhibition at 1 µM with IL-17A was 34%; with IL-21, 33%; in the test with IFN-γ, 19%; with IL-23 it was -2%; with IL-6, 56%; in the test with TNF-α, 58%. The inhibition at 10 µM was determined as 45% in the test on IL-17A; 50% with IL-21; 92% with IFN-γ; 58% with IL-23; 89% in the test with IL-6; 77% in the test with TNF-α.
